# Experimental data: paper PMC5349910, “Discovery of BPR1K871, a quinazoline based, multi-kinase inhibitor for the treatment of AML and solid tumors: Rational design, synthesis, in vitro and in vivo evaluation” (Oncotarget, 2016)
# Entries after “also recorded” stand apart in the source; their conditions may differ.
# Assays:
# FLT3 = FLT3 (Homo sapiens, UniProt P36888); assay: KINOMEScan, FLT3; settings: read-out: FLT3 % control
# CL-97 cells = assay: Anti-proliferative activity, CL-97; assay type: cell-based, human; settings: CL97; Human Lung Cancer; supplement values ± SEM; read-out: CL-97 EC50
# CYP 3A4 = CYP 3A4 (Homo sapiens, UniProt P08684); assay: CYP inhibition assay, CYP 3A4; assay type: in vitro ADME
# CYP 3A4, sequence (P08684 whole entry): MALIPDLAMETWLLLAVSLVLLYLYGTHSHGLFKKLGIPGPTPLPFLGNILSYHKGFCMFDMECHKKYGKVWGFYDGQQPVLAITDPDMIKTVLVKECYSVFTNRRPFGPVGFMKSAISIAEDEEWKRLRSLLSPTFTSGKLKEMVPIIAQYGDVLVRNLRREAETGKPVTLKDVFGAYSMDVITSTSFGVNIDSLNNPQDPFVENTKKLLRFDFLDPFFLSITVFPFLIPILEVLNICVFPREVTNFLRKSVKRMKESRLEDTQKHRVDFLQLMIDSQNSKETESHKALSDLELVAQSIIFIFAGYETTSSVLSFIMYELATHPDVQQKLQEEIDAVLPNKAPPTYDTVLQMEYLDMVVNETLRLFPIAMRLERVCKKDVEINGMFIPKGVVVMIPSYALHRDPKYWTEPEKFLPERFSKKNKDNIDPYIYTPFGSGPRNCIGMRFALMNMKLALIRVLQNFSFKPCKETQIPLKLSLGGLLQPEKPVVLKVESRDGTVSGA
# AURKA = AURKA (Homo sapiens, UniProt O14965); assay: KINOMEScan, AURKA; settings: read-out: AURKA % control
# AURKA, sequence (O14965 whole entry): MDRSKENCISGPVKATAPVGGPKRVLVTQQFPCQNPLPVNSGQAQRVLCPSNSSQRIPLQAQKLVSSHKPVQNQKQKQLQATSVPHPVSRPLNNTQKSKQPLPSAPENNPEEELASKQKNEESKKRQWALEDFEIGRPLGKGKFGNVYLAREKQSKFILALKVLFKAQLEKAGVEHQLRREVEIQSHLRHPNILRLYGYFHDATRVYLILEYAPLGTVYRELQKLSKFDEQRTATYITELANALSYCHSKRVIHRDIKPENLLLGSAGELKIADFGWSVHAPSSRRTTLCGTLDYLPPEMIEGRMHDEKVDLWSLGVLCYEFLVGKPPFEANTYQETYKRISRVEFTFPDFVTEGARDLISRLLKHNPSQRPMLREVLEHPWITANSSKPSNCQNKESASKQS
# AURKB = AURKB (Homo sapiens, UniProt Q96GD4); assay: KINOMEScan, AURKB; settings: read-out: AURKB % control
# AURKB, sequence (Q96GD4 whole entry): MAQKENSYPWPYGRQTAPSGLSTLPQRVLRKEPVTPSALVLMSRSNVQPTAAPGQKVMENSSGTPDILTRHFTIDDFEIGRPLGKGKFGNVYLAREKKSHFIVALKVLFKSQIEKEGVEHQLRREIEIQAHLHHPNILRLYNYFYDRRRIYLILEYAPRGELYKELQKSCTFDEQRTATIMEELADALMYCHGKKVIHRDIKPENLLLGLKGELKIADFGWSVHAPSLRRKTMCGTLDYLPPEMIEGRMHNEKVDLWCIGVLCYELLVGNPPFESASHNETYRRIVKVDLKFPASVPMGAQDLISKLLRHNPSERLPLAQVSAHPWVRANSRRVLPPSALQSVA
# [1] = test system: phospho AURKA (Thr288), AURKB (Thr232), AURKC (Thr198), and phospho histone H3 (Ser10); assay: Western blot, phosphorylation of Aurora substrates in HCT-116 cells; assay type: cell-based, human; settings: 2.0 h, dose dependent
# Source text: BPR1K871 inhibited phospho AURKA (Thr288), AURKB (Thr232), AURKC (Thr198), and phospho histone H3 (Ser10) formation in HCT-116 cells in a dose dependent manner (Figure 7A).
# ABL1^H396P = ABL1^H396P (Homo sapiens, UniProt P00519, H396P); assay: KINOMEScan, ABL1 H396P; settings: read-out: ABL1^H396P % control
# MESSA cells = assay: Anti-proliferative activity, MESSA; assay type: cell-based; settings: Homo sapiens, MES-SA; Uterine Sarcoma
# AURKC = AURKC (Homo sapiens, UniProt Q9UQB9); assay: KINOMEScan, AURKC; settings: read-out: AURKC % control
# AURKC, sequence (Q9UQB9 whole entry): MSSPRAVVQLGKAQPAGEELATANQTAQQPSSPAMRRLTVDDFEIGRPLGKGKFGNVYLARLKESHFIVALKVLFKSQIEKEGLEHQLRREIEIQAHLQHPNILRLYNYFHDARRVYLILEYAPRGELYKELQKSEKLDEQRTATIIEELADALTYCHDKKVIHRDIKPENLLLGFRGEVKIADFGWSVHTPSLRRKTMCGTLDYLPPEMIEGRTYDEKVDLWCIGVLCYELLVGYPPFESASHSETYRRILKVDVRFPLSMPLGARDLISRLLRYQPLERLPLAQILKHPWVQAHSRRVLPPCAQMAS
# KIT^L576P = KIT^L576P (Homo sapiens, UniProt P10721, L576P); assay: KINOMEScan, KIT L576P; settings: read-out: KIT^L576P % control
# KIT^L576P, sequence (P10721 26-976 L576P): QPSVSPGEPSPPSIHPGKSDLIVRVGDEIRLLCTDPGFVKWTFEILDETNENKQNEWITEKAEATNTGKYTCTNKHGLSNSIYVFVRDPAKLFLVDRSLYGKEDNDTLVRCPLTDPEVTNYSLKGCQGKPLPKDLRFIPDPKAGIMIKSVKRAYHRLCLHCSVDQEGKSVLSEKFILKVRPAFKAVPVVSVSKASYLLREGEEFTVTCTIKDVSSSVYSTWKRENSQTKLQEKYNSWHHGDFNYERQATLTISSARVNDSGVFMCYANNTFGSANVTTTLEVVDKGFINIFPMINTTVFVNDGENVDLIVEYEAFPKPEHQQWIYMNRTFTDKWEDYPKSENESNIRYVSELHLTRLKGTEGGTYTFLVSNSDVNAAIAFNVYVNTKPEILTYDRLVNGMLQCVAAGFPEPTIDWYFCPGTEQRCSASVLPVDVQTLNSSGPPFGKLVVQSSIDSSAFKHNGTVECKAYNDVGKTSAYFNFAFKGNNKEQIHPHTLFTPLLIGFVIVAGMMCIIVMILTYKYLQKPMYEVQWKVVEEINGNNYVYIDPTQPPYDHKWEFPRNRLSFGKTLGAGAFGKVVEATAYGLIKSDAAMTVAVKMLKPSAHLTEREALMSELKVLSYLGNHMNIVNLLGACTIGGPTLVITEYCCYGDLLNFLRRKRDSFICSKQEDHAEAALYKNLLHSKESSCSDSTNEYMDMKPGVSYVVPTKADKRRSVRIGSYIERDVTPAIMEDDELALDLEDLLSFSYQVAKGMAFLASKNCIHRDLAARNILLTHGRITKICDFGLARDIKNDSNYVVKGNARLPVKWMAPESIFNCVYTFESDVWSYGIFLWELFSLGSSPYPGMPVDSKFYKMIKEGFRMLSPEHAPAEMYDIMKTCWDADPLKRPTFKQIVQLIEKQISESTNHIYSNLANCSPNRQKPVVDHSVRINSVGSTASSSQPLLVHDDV
# CYP 2C9 = CYP 2C9 (Homo sapiens, UniProt P11712); assay: CYP inhibition assay, CYP 2C9; assay type: in vitro ADME
# CYP 2C9, sequence (P11712 whole entry): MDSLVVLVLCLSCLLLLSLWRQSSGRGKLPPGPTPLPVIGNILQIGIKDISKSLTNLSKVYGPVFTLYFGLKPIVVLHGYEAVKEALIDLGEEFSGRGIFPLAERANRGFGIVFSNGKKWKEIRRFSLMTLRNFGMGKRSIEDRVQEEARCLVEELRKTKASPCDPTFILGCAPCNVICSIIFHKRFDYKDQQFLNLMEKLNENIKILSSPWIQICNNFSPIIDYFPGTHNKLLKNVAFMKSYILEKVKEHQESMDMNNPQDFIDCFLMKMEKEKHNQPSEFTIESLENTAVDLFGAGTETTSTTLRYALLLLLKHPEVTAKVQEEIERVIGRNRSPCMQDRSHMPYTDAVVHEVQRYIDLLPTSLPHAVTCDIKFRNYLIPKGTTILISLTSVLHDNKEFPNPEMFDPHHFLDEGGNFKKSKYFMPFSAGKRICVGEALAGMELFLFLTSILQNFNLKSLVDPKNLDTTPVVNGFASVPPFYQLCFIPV
# [2] = test system: Detroit 551 (human normal skin fibroblast cells); assay: MTS cell viability assay, Detroit-551; assay type: cell-based; settings: 72 h
# Description: The MTS cell viability assay was conducted as previously described. The MOLM-13 human leukemia cell line was obtained from the German Resource Centre for Biological Material (DSMZ, Braunschweig, Germany); the MV4-11 cell line was purchased from the American Type Culture Collection (ATCC, Manassas, VA, USA). Both the leukemia cell lines were maintained in RPMI 1640 medium supplemented with 10% fetal bovine serum (FBS), 10 UmL^-1 penicillin, and […] streptomycin at 37°C and 5% CO2. The Detroit-551, COLO205, and Mia-PaCa2 cell lines were purchased from the American Type Culture Collection (ATCC, Manassas, VA, USA) and cultured according to instructions of ATCC. To determine cell viability after drug treatment, assay for MOLM-13 and MV4-11 was performed by seeding 10000 cells per well in a 96-well culture plate. Detroit-551, COLO205, and Mia-PaCa2 were seeded at density of 2500, 4000, and 3750 cells per well, respectively. After 16 h, cells were then treated with vehicle or various concentrations of compound in medium for 72 h. Viable cells were quantified using the MTS method (Promega, Madison, WI, USA) according to the manufacturer's recommended protocol. Results were determined by measuring the absorbance at 490 nm using a plate reader (Victor2; PerkinElmer, Shelton, CT, USA).
# [3] = Microsomal stability assay, mouse; assay type: in vitro ADME
# CYP 1A2 = CYP 1A2 (Homo sapiens, UniProt P05177); assay: CYP inhibition assay, CYP 1A2; assay type: in vitro ADME
# CYP 1A2, sequence (P05177 whole entry): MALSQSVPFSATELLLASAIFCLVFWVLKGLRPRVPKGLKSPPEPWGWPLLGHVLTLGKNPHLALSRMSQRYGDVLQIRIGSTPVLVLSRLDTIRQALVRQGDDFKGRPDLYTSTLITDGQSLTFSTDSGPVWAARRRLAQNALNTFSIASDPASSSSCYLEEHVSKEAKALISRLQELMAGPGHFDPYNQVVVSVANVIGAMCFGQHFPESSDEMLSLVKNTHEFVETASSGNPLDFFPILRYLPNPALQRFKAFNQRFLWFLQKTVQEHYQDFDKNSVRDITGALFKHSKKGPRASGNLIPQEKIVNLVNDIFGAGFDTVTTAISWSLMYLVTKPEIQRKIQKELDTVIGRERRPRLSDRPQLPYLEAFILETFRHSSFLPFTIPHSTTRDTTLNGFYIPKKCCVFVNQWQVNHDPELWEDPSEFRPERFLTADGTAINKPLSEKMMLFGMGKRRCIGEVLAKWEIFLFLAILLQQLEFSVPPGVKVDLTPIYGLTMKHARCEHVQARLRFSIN
# MKN-45 cells = assay: Anti-proliferative activity, MKN-45; assay type: cell-based; settings: Human Gastric Cancer
# [4] = In vivo pharmacokinetics evaluation in rats; set-up: species or system Male Sprague-Dawley rats; settings: rat
# Description: This study was approved by Institutional Animal Care and Use Committee of National Health Research Institutes. A solution of test compound (10 mg/mL) was prepared by dissolving appropriate amount of compound in a mixture of DMA/PEG400 (20/80, v/v). Male Sprague-Dawley rats, weighing 250–350 g each (8–10 weeks old), were obtained from BioLASCO, Ilan, Taiwan. […] The volume of dosing solution administered was adjusted according to the body weight recorded before dose administration. At 0 (prior to dosing), 2, 5, 15, and 30 min and at 1, 2, 4, 6, 8, and 24 h after dosing, a blood sample (∼150 μL) was collected from each animal via the jugular-vein cannula and stored in ice (0–4°C). Plasma was separated from the blood by centrifugation (14000 g for 15 min at 4°C in a Beckman model AllegraTM 6R centrifuge) and stored in a freezer (–60°C). All samples were analyzed for the test compound by LC-MS/MS (ABI3000). Data were acquired via multiple reactions monitoring. Plasma concentration data were analyzed with standard noncompartmental method with WinNonLin software program (version 1.1, Pharsight Corporation, CA).
# MOLM-13 cells = assay: MTS cell viability assay, MOLM-13; assay type: cell-based, human; settings: Homo sapiens, MOLM-13, 72 h, MTS, 72 h; AML-FLT3-ITD (heterozygous); supplement values ± SEM; read-out: MOLM-13 EC50
# Description: The MTS cell viability assay was conducted as previously described. The MOLM-13 human leukemia cell line was obtained from the German Resource Centre for Biological Material (DSMZ, Braunschweig, Germany); the MV4-11 cell line was purchased from the American Type Culture Collection (ATCC, Manassas, VA, USA). […] To determine cell viability after drug treatment, assay for MOLM-13 and MV4-11 was performed by seeding 10000 cells per well in a 96-well culture plate. […] After 16 h, cells were then treated with vehicle or various concentrations of compound in medium for 72 h. Viable cells were quantified using the MTS method (Promega, Madison, WI, USA) according to the manufacturer's recommended protocol. Results were determined by measuring the absorbance at 490 nm using a plate reader (Victor2; PerkinElmer, Shelton, CT, USA).
# [5] = male, Sprague-Dawley, plasma, iv, 5 mg/kg
# FLT3, sequence (P36888 27-993): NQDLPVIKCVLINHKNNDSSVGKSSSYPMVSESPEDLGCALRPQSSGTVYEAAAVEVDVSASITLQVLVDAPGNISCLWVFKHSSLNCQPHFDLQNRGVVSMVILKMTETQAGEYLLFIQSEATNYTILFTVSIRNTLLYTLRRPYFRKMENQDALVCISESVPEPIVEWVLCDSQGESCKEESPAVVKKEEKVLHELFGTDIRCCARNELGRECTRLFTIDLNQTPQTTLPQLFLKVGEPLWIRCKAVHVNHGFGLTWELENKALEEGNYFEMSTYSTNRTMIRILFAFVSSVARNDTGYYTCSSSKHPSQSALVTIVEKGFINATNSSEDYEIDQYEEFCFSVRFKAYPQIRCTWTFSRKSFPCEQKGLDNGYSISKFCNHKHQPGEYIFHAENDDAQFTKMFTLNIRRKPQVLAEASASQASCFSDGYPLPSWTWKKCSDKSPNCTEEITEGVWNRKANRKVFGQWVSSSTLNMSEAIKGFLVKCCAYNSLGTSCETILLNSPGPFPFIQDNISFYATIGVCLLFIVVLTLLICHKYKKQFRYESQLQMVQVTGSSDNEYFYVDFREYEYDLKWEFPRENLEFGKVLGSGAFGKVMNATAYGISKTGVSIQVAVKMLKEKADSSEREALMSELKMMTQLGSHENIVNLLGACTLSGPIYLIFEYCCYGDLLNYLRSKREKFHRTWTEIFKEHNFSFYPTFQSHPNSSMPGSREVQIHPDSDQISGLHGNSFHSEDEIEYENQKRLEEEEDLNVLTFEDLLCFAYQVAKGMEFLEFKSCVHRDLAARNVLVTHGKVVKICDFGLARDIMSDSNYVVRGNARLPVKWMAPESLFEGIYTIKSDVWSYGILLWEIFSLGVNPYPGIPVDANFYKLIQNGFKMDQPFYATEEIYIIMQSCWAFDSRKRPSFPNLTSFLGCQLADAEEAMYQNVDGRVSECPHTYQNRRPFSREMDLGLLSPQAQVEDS
smiles,measurement,setting,value
"CN(C)CCCOc1ccc2c(NCCc3cnc(NC(=O)Nc4cccc(Cl)c4)s3)ncnc2c1 [BPR1K871, 1-(3-Chlorophenyl)-3-(5-(2-((7-(3-(dimethylamino)propoxy)quinazolin-4-yl)amino)ethyl)thiazol-2-yl)urea]",remaining binding at 1 µM,FLT3,0.2%
same,EC50,CL-97 cells,2890 nM
same,IC50,CYP 3A4,> 4000 nM
same,remaining binding at 1 µM,AURKA,0%
same,remaining binding at 1 µM,AURKB,0.2%
same,"inhibition of phospho AURKA, AURKB, AURKC and phospho histone H3 formation",[1],inhibited; also recorded: decreased levels
same,remaining binding at 1 µM,ABL1^H396P,< 4.4%
same,EC50,MESSA cells,216 nM
same,remaining binding at 1 µM,AURKC,3.3%
same,remaining binding at 1 µM,KIT^L576P,< 4%
same,IC50,CYP 2C9,> 4000 nM
same,EC50,[2],4000 nM
same,"microsomal stability, remaining at 30 min",[3],> 30%
same,IC50,CYP 1A2,> 4000 nM
same,EC50,MKN-45 cells,355 nM
same,AUC(0-inf),[4]; [5],1460 ng·h/mL
same,clearance,[4]; [5],60.4 mL/min/kg
same,half-life,[4]; [5],23.5 h
same,Vd,"[4]; male, Sprague-Dawley, plasma, iv, 5 mg/kg, read-out: Vss",34.2 L/kg
same,oral bioavailability,[4],without oral bioavailability
same,AUC (0-∞),"[4]; po, 20 mg/kg",not detectable
same,Cmax,"[4]; po, 20 mg/kg",not detectable
same,Tmax,"[4]; po, 20 mg/kg",not detectable
same,t1/2,"[4]; po, 20 mg/kg",not detectable
same,EC50,MOLM-13 cells,~5 nM
